In the NIST ThermoML archive (doi:10.1021/acs.jced.7b01004):
Numbers after ± are expanded uncertainties.

Key:
[1] = refractive index (Na D-line) (dimensionless); xn = mol fraction of the nth substance listed; conditions: 293.15 K; 99.6 kPa; Liquid; Standard Abbe refractometry; x1 = 0.5
[2] = xn = mol fraction of the nth substance listed; conditions: 99.6 kPa, Liquid, x1 = 0.5; for viscosity: Concentric cylinders viscometry; for mass density: Vibrating tube method

CCCCn1cc[n+](C)c1.CS(=O)(=O)[O-] [1-butyl-3-methylimidazolium methanesulfonate] + NC(N)=O
Conditions | refractive index
[1] | 1.493 ± 0.001

[2]
Conditions | mass density [kg/m3] | viscosity [mPa·s]
293.15 K | 1202.2 ± 1.2 | 1892.9 ± 93
303.15 K | 1195.6 ± 1.2 | 686.69 ± 25
313.15 K | 1189.2 ± 1.2 | 295.72 ± 7.4
323.15 K | 1182.7 ± 1.2 | 145.85 ± 2.3
333.15 K | 1176.3 ± 1.2 | 80.41 ± 0.74
